Measurements taken from PMC8003975 (Cancers, 2021).
Values after ≈ are worked out from the molar mass of the structure shown.

Experiments:
[1] = literature-reported biology of the tentatively identified metabolite; no reference given; cited from earlier work
[2] = system: human normal oral keratinocytes (NOK); assay: Cytotoxicity assay (Cell Counting Kit-8); assay type: cell-based; conditions: 48 h
From the text: (§1) Normal oral keratinocytes (NOK) (kindly gifted by Dr. Karl Mugner, Tuffs University, Boston, MA, USA) were maintained in Keratinocyte SFM medium supplemented with EGF and bovine pituitary extract (GIBCO, Life Technologies, Berkeley, MO, USA) and 1% penicillin/ streptomycin. HNC cell line Cal27 was purchased from the ATCC. JHU029 (JHU-29) and JHU022 (JHU-22) cell lines were procured from the Johns Hopkins University (Baltimore, MD, USA). The Cal27 and JHU022 cells were maintained in Dulbecco’s Modified Eagle Medium (DMEM), and JHU029 cells were in RPMI1640 (Sigma, St. Louis, MO, USA) media supplemented with 10% FBS and 1% penicillin/ streptomycin (Sigma-Aldrich, St. Louis, MO, USA) in a humidified CO2 incubator. The cell lines are routinely tested in our laboratory to rule out mycoplasma contamination using a commercial MycoAlert™ Mycoplasma Detection kit (Lonza, Morrisville, NC, USA). Cal27 cells are tongue origin and JHU022 and JHU029 cells are from laryngx origin.
(§2) Cal27, JHU029, JHU022 and NOK were seeded in 96 well-plate (5000 cells/well) and cells were treated with different concentration of M-I for 48 h. There were untreated control and DMSO treated vehicle control group for comparison. Cytotoxicity assay was performed using Cell Counting Kit-8 (Dojindo Molecular Technology, Rockville, MD, USA) according to manufacturer instruction.

[3] = system: JHU029 cells; assay: Cytotoxicity assay (Cell Counting Kit-8); assay type: cell-based; conditions: Homo sapiens, 48 h
From the text: as §1, §2

[4] = system: Cal27 cells; assay: Cytotoxicity assay (Cell Counting Kit-8); assay type: cell-based; conditions: Homo sapiens, CAL-27, 48 h
From the text: as §1, §2

[5] = system: JHU022 cells; assay: Cytotoxicity assay (Cell Counting Kit-8); assay type: cell-based; conditions: Homo sapiens, 48 h
From the text: as §1, §2

Question: For `CC(C)=CC(O)CC(C)[C@H]1CC[C@@]2(C)[C@@H]3[C@@H](O)C=C4[C@@H](CC[C@H](O)C4(C)C)[C@]3(C=O)CC[C@]12C` (stereo partly drawn) [M-I, (3S, 7S, 8S, 9R, 10R, 13R, 14S, 17R) 3,7-dihydroxy-17-(4-hydroxy-6-methylhept-5-en-2-yl)-4,4,13,14-tetramethyl-2,3,7,8,10,11, 12,15,16,17-decahydro-1H-cyclopenta[a]phenanthrene-9-carbaldehyde], which “Reported Biology” value [1] is on record?
Answer: The value was “• stimulate insulin secretion in vitro • diabetes-associated cardiac fibrosis”.

Question: What about the “cytotoxic effect on normal oral keratinocytes” value [2] of the same compound?
Answer: Its value is “minimum effect”.

Question: And the IC50 [3]?
Answer: Its IC50 is 6.5 µg/mL (≈ 13.8 µM).

Question: And the IC50 [4]?
Answer: Its IC50 is 7 µg/mL (≈ 14.8 µM).

Question: And the IC50 [5]?
Answer: Its IC50 is 17 µg/mL (≈ 36 µM).
